Article PMC8302244 (CPT: Pharmacometrics & Systems Pharmacology, 2021)

Tests used:
[1] = Semimechanistic population PK model
[2] = Predicted individual exposure metrics
CYP3A4 mRNA = conditions: primary human hepatocytes, up to 300 μM; ref unpublished data on file; cited from earlier work
[3] = cited from earlier work
[4] = test system: human cell lines derived from NC, SCLC, CRPC, TNBC, ER+BC and GIST; conditions: cited from earlier work
[5] = final model Run 32, power estimate of covariate effect
[6] = Besylate substudy—80 mg q.d., W1D1
[7] = Besylate substudy—80 mg q.d., W3D4

## COc1ccc2c(c1)C(c1ccc(Cl)cc1)=N[C@@H](CC(N)=O)c1nnc(C)n1-2 [GSK3529246]
[1]; final model Run 32
  GSK3529246 central volume of distribution mV1/F: 62.1 L
  GSK3529246 clearance mCL/F: 12.8 L/h
  GSK3529246 transit rate mka: 11.5 h⁻¹
[1]; [5]
  AST effect on mCL/F: −0.194
  Weight effect on V1/F and mV1/F: 0.717
[1]; final model Run 32, variance
  IIV on GSK3529246 transit rate ωmka2: 0.488
[2]; [6]
  AUC0–24 Mean: 3110.0 ng/mL
  Cmax Mean: 316.0 ng/mL
  Cmin Mean: 34.7 ng/mL
[2]; [7]
  AUC0–24 Mean: 5890.0 ng/mL
  Cmax Mean: 469.0 ng/mL
  Cmin Mean: 89.6 ng/mL
[2]; Part 1—40 mg b.i.d., W1D1
  AUC0–24 Mean: 1860.0 ng/mL
  Cmax Mean: 222.0 ng/mL
  Cmin Mean: 94.5 ng/mL
[2]; Part 1—40 mg b.i.d., W3D4
  AUC0–24 Mean: 5810.0 ng/mL
  Cmax Mean: 365.0 ng/mL
  Cmin Mean: 128.0 ng/mL
[2]; Part 1—60 mg q.d., W1D1
  AUC0–24 Mean: 2640.0 ng/mL
  Cmax Mean: 296.0 ng/mL
  Cmin Mean: 21.3 ng/mL
[2]; Part 1—60 mg q.d., W3D4
  AUC0–24 Mean: 4240.0 ng/mL
  Cmax Mean: 379.0 ng/mL
  Cmin Mean: 57.7 ng/mL
[2]; Part 1—80 mg q.d., W1D1
  AUC0–24 Mean: 3230.0 ng/mL
  Cmax Mean: 355.0 ng/mL
  Cmin Mean: 65.8 ng/mL
[2]; Part 1—80 mg q.d., W3D4
  AUC0–24 Mean: 4730.0 ng/mL
  Cmax Mean: 448.0 ng/mL
  Cmin Mean: 66.1 ng/mL
[2]; Part 1—100 mg q.d., W1D1
  AUC0–24 Mean: 3910.0 ng/mL
  Cmax Mean: 383.0 ng/mL
  Cmin Mean: 46.8 ng/mL
[2]; Part 1—100 mg q.d., W3D4
  AUC0–24 Mean: 6970.0 ng/mL
  Cmax Mean: 567.0 ng/mL
  Cmin Mean: 120.0 ng/mL
[2]; Part 2—75 mg q.d., W1D1
  AUC0–24 Mean: 2720.0 ng/mL
  Cmax Mean: 325.0 ng/mL
  Cmin Mean: 57.5 ng/mL
[2]; Part 2—75 mg q.d., W3D4
  AUC0–24 Mean: 5010.0 ng/mL
  Cmax Mean: 431.0 ng/mL
  Cmin Mean: 82.7 ng/mL
CYP3A4 mRNA
  donors with concentration‐dependent increase in CYP3A4 mRNA: one donor
[3]
  free fraction in plasma: approximately 0.2

## CCNC(=O)C[C@@H]1N=C(c2ccc(Cl)cc2)c2cc(OC)ccc2-n2c(C)nnc21 [Molibresib]
[4]
  proliferation of human cancer cell lines: inhibits the proliferation
